Assay [1] deals with T1, human ornithine decarboxylase (ODC) (Homo sapiens, UniProt P11926).
T1 sequence (P11926 1-461): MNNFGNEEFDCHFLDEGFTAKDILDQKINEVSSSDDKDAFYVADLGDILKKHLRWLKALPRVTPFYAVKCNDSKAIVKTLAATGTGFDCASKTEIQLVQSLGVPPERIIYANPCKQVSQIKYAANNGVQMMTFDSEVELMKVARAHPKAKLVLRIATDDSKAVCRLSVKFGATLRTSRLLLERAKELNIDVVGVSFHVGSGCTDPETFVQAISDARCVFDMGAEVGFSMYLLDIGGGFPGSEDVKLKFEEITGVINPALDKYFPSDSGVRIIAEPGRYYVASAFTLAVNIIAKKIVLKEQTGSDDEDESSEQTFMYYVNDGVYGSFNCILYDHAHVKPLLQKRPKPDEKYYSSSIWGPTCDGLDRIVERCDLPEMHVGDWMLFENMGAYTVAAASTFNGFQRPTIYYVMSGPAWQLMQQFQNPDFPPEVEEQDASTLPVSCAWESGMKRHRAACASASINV
Description: Inhibition of the activity of human ornithine decarboxylase by continuous spectrophotometry. In kind it is biochemical. Particulars: isolated component, FIG. 9. How it is done:
In this example, inhibition of the activity of human ornithine decarboxylase (ODC) was tested by continuous spectrophotometry. The standard ODC spectrophotometric reaction composition contained 30 mM Tris-HCl (pH 7.8), 10 mM ornithine, and 0.2 mM pyridoxal 5′-phosphate (PLP), together with 12.5 mM phosphoenolpyruvate, 0.4 unit/mL […] of microbes, 4.1 unit/mL malate dehydrogenase (malate dehydrogenase of mammals), and 0.6 mM NADH analog, with the final volume being 0.5 mL. The test mixture was added with a predetermined amount of an Acacia confusa extract sample as an inhibitor and then added with an appropriate amount of ODC to start the reaction. Once the enzyme ODC was added into the reaction mixture, the decrease in absorbance at 405 nm was continuously tracked with Lambda 25 UV-visible spectrophotometer (PerkinElmer Life Sciences). By this test method, 1 mole of CO2 was generated under the test conditions, and 1 mole of NADH analog was oxidized. The unit of the enzyme ODC was defined as the amount of the enzyme that is required to catalyze the generation of 1 mole of NAD per minute. For the calculation, 2410 M^−1cm^−1 was used as the molar absorptivity of the NADH analog. […]

The target of assay [2] is human peptidylarginine deiminase 4 (PAD4) (Homo sapiens, UniProt Q9UM07). Description: Inhibition of the activity of human peptidylarginine deiminase 4 by continuous spectrophotometry. The settings on record: human PAD4, isolated component, FIG. 10. In kind it is biochemical. The protocol: In this example, inhibition of the activity of human peptidylarginine deiminase 4 (PAD4) was tested by continuous spectrophotometry. The standard PAD4 spectrophotometric reaction mixture contained 10 mM BAEE (benzoyl-L-arginine ethyl ester), 10 mM CaCl2), 2.5 mM dithiothreitol (DTT), 8.5 mM α-ketoglutarate (α-KG), 0.22 mM NADH, and 3 U glutamate dehydrogenase (GDH). 100 mM Tris-HCl (pH 7.5) was added into a 1-mL colorimetric tube, followed by a predetermined amount of an Acacia confusa extract sample as an inhibitor. The temperature was controlled at 37° C. An appropriate amount of PAD4 was then added into the test mixture to start the reaction. Once the enzyme PAD4 was added into the reaction mixture, the decrease in absorbance at 340 nm was continuously recorded with a spectrophotometer (Beckman DU 7500). The unit of the enzyme PAD4 was defined as the amount reduced in order to catalyze the conversion of 1 μmol of NADH to NAD^+ per minute. For the calculation of enzyme activity, 6220 M^−1cm^−1 was used as the molar absorptivity of the NADH.
Sequence of human peptidylarginine deiminase 4 (PAD4) (Q9UM07 whole entry): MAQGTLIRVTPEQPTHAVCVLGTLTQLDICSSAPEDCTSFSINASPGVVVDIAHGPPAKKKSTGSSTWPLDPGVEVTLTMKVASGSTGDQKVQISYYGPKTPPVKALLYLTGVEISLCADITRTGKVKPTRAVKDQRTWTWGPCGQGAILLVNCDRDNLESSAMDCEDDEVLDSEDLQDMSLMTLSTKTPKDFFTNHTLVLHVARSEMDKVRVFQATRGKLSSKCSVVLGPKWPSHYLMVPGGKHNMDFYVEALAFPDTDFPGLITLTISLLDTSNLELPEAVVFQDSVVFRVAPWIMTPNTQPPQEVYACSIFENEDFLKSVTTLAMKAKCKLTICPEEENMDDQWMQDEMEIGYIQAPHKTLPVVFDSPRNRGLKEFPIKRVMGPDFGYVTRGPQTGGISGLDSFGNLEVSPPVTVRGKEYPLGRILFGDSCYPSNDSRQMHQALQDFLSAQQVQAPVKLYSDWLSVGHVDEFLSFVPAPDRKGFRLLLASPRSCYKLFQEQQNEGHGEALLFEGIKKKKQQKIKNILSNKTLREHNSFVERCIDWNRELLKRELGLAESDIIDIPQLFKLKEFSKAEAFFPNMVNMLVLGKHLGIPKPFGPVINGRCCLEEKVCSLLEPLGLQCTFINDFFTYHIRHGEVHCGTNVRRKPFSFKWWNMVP
Referring to the content of Example 3 to detect the inhibiting activity of peptidylarginine deiminase 4 (PAD4) of components of the Acacia confusa ethyl acetate extract: Melanoxetin, Okanin and Transilitin, the results are shown in FIG. 10.

SMILES strings stand for the structures.

The results in this text go back to US20250281560A1, “METHOD FOR PREVENTING AND/OR TREATING CANCER OR AUTOIMMUNE DISEASE WITH 3,4,2 Prime,3 Prime,4 Prime-PENTAHYDROXY-TRANS-CHALCONE” (priority 2024, published 2025).

On to `O=C(/C=C/c1ccc(O)c(O)c1)c1ccc(O)c(O)c1O` [Okanin, 3,4,2′,3′,4′-pentahydroxy-trans-chalcone], for which the values for the 50% inhibitory concentration (IC50) in assay [1] and in assay [2] were 8.2 ± 2.1 µM and 89.2 ± 8.3 µM, respectively.
